This is an account of results in patent US10435396B2, “2-substituted indazoles, methods for producing same, pharmaceutical preparations that contain same, and use of same to produce drugs” (Bayer Pharma Aktiengesellschaft, priority 2016, dated 2019).

One assay has as its target human IRAK4 (Homo sapiens (Human), UniProt Q9NWZ3). Description: IRAK4 kinase assay (IRAK4 TR-FRET assay). It counts as biochemical. To be noted: 1 mM ATP. The method, then: The IRAK4-inhibitory activity of the substances according to the invention was measured in the IRAK4 TR-FRET assay (TR-FRET=Time Resolved Fluorescence Resonance Energy Transfer) described hereinafter.
Recombinant fusion protein from N-terminal GST (glutathione S-transferase) and human IRAK4, expressed in baculovirus-infected insect cells (Hi5, BTI-TN-5B1-4, cell line purchased from Invitrogen, catalogue No. B855-02) and purified via affinity chromatography, was used as enzyme. The substrate used for the kinase reaction was the biotinylated peptide biotin-Ahx-[…] (C-terminus in amide form) which can be purchased, for example, from Biosyntan GmbH (Berlin-Buch).
For the assay, 11 different concentrations in the range from 20 μM to 0.073 nM were prepared from a 2 mM solution of the test substance in DMSO. 50 nl of the respective solution were pipetted into a black low-volume 384-well microtitre plate (Greiner Bio-One, Frickenhausen, Germany), 2 μl of a solution of IRAK4 in assay buffer [50 mM HEPES pH 7.5, 5 mM MgCl2, 1.0 mM dithiothreitol, 30 μM activated sodium orthovanadate, 0.1% (w/v) of bovine gamma-globulin (BGG) 0.04% (v/v) nonidet-P40 (Sigma)] were added and the mixture was incubated for 15 min to allow prebinding of the substances to the enzyme prior to the kinase reaction. The kinase reaction was then started by addition of 3 μl of a solution of adenosine triphosphate (ATP, 1.67 mM=final concentration in 5 μl of assay volume: 1 mM) and peptide substrate (0.83 μM=final concentration in 5 μl assay volume: 0.5 μM) in assay buffer, and the resulting mixture was incubated at 22° C. for the reaction time of 45 min. The concentration of the IRAK4 was adjusted to the respective activity of the enzyme and set such that the assay was carried out in the linear range. Typical concentrations were in the order of about 0.2 nM. The reaction was stopped by addition of 5 μl of a solution of TR-FRET detection reagents [0.1 μM streptavidin-XL665 (Cisbio Bioassays; France, catalogue No. 610SAXLG)] and 1.5 nM anti-phosphoserine antibody [Merck Millipore, “STK Antibody”, catalogue No. 35-002] and 0.6 nM LANCE EU-W1024-labelled anti-mouse-IgG antibody (Perkin-Elmer, product No. AD0077; alternatively, it is possible to use a terbium cryptate-labelled anti-mouse-IgG antibody from Cisbio Bioassays) in aqueous EDTA solution (100 mM EDTA, 0.4% [w/v] bovine serum albumin [BSA] in 25 mM HEPES pH 7.5).
The resulting mixture was incubated at 22° C. for 1 h to allow formation of a complex of the biotinylated phosphorylated substrate and the detection reagents. The amount of the phosphorylated substrate was then evaluated by measuring the resonance energy transfer from europium chelate-labelled anti-mouse-IgG antibody to streptavidin-XL665. To this end, the fluorescence emissions at 620 nm and 665 nm were measured after excitation at 350 nm in a TR-FRET measuring instrument, for example a Rubystar (BMG Labtechnologies, Offenburg, Germany) or a Viewlux (Perkin-Elmer). The ratio of the emissions at 665 nm and 622 nm was taken as a measure of the amount of phosphorylated substrate. The data were normalized (enzyme reaction without test substance=0% inhibition; all other assay components but no enzyme=100% inhibition). Typically, the test substances were tested on the same microtitre plates at 11 different concentrations in the range from 20 μM to 0.073 nM (20 μM, 5.7 μM, 1.6 μM, 0.47 μM, 0.13 μM, 38 nM, 11 nM, 3.1 nM, 0.89 nM, 0.25 nM and 0.073 nM). The dilution series were prepared prior to the assay (2 mM to 7.3 nM in 100% DMSO) by serial dilutions. The IC50 values were calculated using a 4-parameter fit.
For orientation: TR-FRET usually uses a lanthanide donor and a delayed reading to cut background.

Assay [1] concerns secretion of TNF-α in THP-1 cells. The assay is described as follows: TNF-α secretion in THP-1 cells (LPS-triggered). It counts as cell-based, human. The following applies: Homo sapiens, THP-1, 17 h, LPS 0.05 μg/ml, read-out: IC50 with respect to the secretion of TNF-α in THP-1 cells. The method, then:
TNF-α Secretion in THP-1 Cells
With the aid of this test, it is possible to test substances for their ability to inhibit secretion of TNF-α (tumour necrosis factor alpha) in THP-1 cells (human monocytic acute leukaemia cell line). TNF-α is a cytokine involved in inflammatory processes. In this test, TNF-α secretion is triggered by incubation with bacterial lipopolysaccharide (LPS).
THP-1 cells are kept in continuous suspension cell culture [RPMI 1460 medium with L-Glutamax (Gibco, Cat No. 61870-044) supplemented with foetal calf serum (FCS) 10% (Invitrogen, Cat No. 10082-147), 1% penicillin/streptomycin (Gibco BRL, Cat No. 15140-114)] and should not exceed a cell concentration of 1×10^6 cells/ml. The assay is carried out in cell culture medium (RPMI 1460 medium with L-Glutamax supplemented with FCS 10%).
In each case 2-2.5 μl of the cell suspension (corresponds to 4000 cells) per well were dispensed into a 384-well test plate (Greiner, Cat No. 784076), in each of which 40-50 nl substance had been dissolved in 100% DMSO. This was done using […] in the range from 20 μM to 0.073 nM for each substance. The cells were incubated at room temperature for 15 min. 2-2.5 μl of 0.1 μg/ml LPS (Sigma, Escherichia coli 055:B5, Cat. No. L5418) dissolved in cell culture medium (final concentration 0.05 μg/ml) were then dispensed into each well. As neutral control, cells were treated with 0.05 μg/ml LPS and 1% DMSO and, as inhibitor control, with 1% DMSO only.
The plates were centrifuged at 80 g for 30 s and incubated at 37° C., 5% CO2 and 95% atmospheric humidity for 17 h. The amount of TNF-α was determined using the TNF-alpha HTRF Detection Kit (Cisbio, Cat No. 62TNFPEB/C). To this end, 2 μl of the detection solution in each case, consisting of anti-TNF-α-XL665 conjugate and anti-TNF-α-cryptate conjugate dissolved in the reconstitution buffer in accordance with the manufacturer's instructions, were added for the HTRF (Homogeneous Time-Resolved Fluorescence) test. After the addition, the mixture was incubated either at room temperature for 3 h or at 4° C. overnight. The signals were then read at 620/665 nm using an HTRF-enabled measuring instrument such as the BMG PheraStar.
The activity of the substances is expressed as the ratio between neutral and inhibitor control in percent. The IC50 values were calculated using a 4-parameter fit.

Sequence of human IRAK4 (Q9NWZ3 whole entry, the tested form may be a part): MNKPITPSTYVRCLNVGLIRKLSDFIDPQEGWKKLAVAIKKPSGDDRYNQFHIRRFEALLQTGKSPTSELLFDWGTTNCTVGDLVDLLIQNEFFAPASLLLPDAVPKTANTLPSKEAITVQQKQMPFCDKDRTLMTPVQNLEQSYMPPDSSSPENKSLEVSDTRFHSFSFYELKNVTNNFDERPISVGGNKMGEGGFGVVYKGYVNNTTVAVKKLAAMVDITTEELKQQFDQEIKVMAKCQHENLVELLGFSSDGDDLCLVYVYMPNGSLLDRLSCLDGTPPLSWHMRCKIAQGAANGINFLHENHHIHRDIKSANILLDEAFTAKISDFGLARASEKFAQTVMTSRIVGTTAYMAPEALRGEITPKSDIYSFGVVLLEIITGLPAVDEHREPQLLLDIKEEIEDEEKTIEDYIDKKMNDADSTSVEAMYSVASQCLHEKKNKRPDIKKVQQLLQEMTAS

For the molecule `CC(C)(O)c1cccc(C(=O)Nc2cc3cn(C4CCS(=O)(=O)CC4)nc3cc2Cl)n1` [Example 32, N-[6-Chloro-2-(1,1-dioxidotetrahydro-2H-thiopyran-4-yl)-2H-indazol-5-yl]-6-(2-hydroxypropan-2-yl)pyridine-2-carboxamide], the IC50 (as a rule, the point on the concentration scale where inhibition reaches its midpoint) at human IRAK4 turned out to be 34 nM; in assay [1] it was 280 nM.
Consider `COc1cc2nn(C3CCN(S(=O)(=O)NC(C)=O)CC3)cc2cc1NC(=O)c1cccc(C(F)(F)F)n1` [Example 8, N-{2-[1-(Acetylsulphamoyl)piperidin-4-yl]-6-methoxy-2H-indazol-5-yl}-6-(trifluoromethyl)pyridine-2-carboxamide], for which the IC50 worked out at 8 nM on human IRAK4 and 520 nM in assay [1].
On to `COc1cc2nn(C3CCN(CC(F)(F)F)CC3)cc2cc1NC(=O)c1cccc(C(F)(F)F)n1` [Example 3, N-{6-Methoxy-2-[1-(2,2,2-trifluoroethyl)piperidin-4-yl]-2H-indazol-5-yl}-6-(trifluoromethyl)pyridine-2-carboxamide], for which the IC50 turned out to be 7 nM against human IRAK4 and 750 nM in assay [1].
Regarding `O=C(Nc1cc2cn(C3CCOCC3)nc2cc1Cl)c1cccc(C(F)F)n1` [Example 31, N-[6-Chloro-2-(tetrahydro-2H-pyran-4-yl)-2H-indazol-5-yl]-6-(difluoromethyl)pyridine-2-carboxamide], the IC50 was 22 nM at human IRAK4 and 90 nM in assay [1].
On to `COc1cc2nn(C3CCOCC3)cc2cc1NC(=O)c1cccc(N)n1` [Example 26, 6-Amino-N-[6-methoxy-2-(tetrahydro-2H-pyran-4-yl)-2H-indazol-5-yl]pyridine-2-carboxamide], for which the values for the IC50 (against human IRAK4; in assay [1]) were 6 nM and 220 nM, respectively.
With `COc1cc2nn([C@H]3C[C@@H]4C[C@H]3CN4C)cc2cc1NC(=O)c1cccc(C(F)(F)F)n1` (relative stereo) [Example 19, rel-N-{6-Methoxy-2-[(1S,4S,5S)-2-methyl-2-azabicyclo[2.2.1]hept-5-yl]-2H-indazol-5-yl}-6-(trifluoromethyl)pyridine-2-carboxamide], the IC50 at human IRAK4 is 9 nM; in assay [1] it was 190 nM.
For `COc1cc2nn(C3CCOCC3)cc2cc1NC(=O)c1ccnc(C(C)C)n1` [Example 27, 2-Isopropyl-N-[6-methoxy-2-(tetrahydro-2H-pyran-4-yl)-2H-indazol-5-yl]pyrimidine-4-carboxamide], the IC50 was 111 nM at human IRAK4 and 1790 nM in assay [1].
In the case of `COc1cc2nn(C3CCOCC3)cc2cc1NC(=O)c1csc(C)n1` [Example 25, N-[6-Methoxy-2-(tetrahydro-2H-pyran-4-yl)-2H-indazol-5-yl]-2-methyl-1,3-thiazole-4-carboxamide], the values for the IC50 (at human IRAK4; in assay [1]) were 10 nM and 840 nM, respectively.
Regarding `CC(C)(O)c1cc2nn(C3CCOCC3)cc2cc1NC(=O)c1cccc(C(F)(F)F)n1` [Example 34, N-[6-(2-Hydroxypropan-2-yl)-2-(tetrahydro-2H-pyran-4-yl)-2H-indazol-5-yl]-6-(trifluoromethyl)pyridine-2-carboxamide], the figures for the IC50 (against human IRAK4; in assay [1]) were 6 nM and 230 nM, respectively.
For the molecule `O=C(Nc1cc2cn(C3CCOCC3)nc2cc1Cl)c1cccc(C(F)(F)F)n1` [Example 30, N-[6-Chloro-2-(tetrahydro-2H-pyran-4-yl)-2H-indazol-5-yl]-6-(trifluoromethyl)pyridine-2-carboxamide], the IC50 against human IRAK4 worked out at 47 nM; in assay [1] it was 280 nM.
Regarding `O=C(Nc1cc2cn(C3CCS(=O)(=O)CC3)nc2cc1OCC1CC1)c1cccc(C(F)(F)F)n1` [Example 17, N-[6-(Cyclopropylmethoxy)-2-(1,1-dioxidotetrahydro-2H-thiopyran-4-yl)-2H-indazol-5-yl]-6-(trifluoromethyl)pyridine-2-carboxamide], the IC50 on human IRAK4 came to 20 nM; in assay [1], 110 nM.
With `COc1cc2nn(C3CNC(=O)C3)cc2cc1NC(=O)c1cccc(C(F)(F)F)n1` (centres unmarked) [Example 22, N-[6-Methoxy-2-(5-oxopyrrolidin-3-yl)-2H-indazol-5-yl]-6-(trifluoromethyl)pyridine-2-carboxamide], the IC50 on human IRAK4 is 13 nM; in assay [1], 150 nM.
For `COc1cc2nn(C3CCOC3)cc2cc1NC(=O)c1cccc(C(F)(F)F)n1` (centres unmarked) [Example 29, N-[6-Methoxy-2-(tetrahydrofuran-3-yl)-2H-indazol-5-yl]-6-(trifluoromethyl)pyridine-2-carboxamide], in that order: 10 nM and 630 nM.
